In patent US8697379B2, “Lysosomotropic inhibitors of acid ceramidase” (MUSC Foundation for Research Development, priority 2008, dated 2014):
Values joined by “and” are separate entries in the source; they are usually repeats but may differ in a detail not shown here. Equal entries are not always repeated. Where two headings read alike, the source gives them in different places. Blank lines part the entries; values can stand above or below the compound they belong to.

Assays:
L929 cells = assay: TNF-α induced PGE2 release from L929 mouse fibroblast cells; type: cell-based; conditions: TNF-α treated L929 mouse fibroblast cells; preliminary data
[1] = Breakdown of prodrugs under the assay conditions; type: in vitro ADME; conditions: under the various assay conditions; preliminary
[2] = system: cellular sphingolipids (Cn-Cer, Sph, S1P) in MCF-7 cells; assay: Endogenous ceramide, Sph and S1P levels in MCF-7 cells by LC-MS/MS; type: cell-based, human
Protocol: (§1) Effects of the inhibitors on the cellular activity of ACDase were determined using cell lysate from the cultured cells previously treated with increasing concentrations of drugs. For this type of assay, the drugs are allowed to enter the cell for a specific time, then cell lysates were prepared by homogenization and assays performed as described above. Effects on endogenous Cers and Sph were determined using LC-MS/MS analysis as previously described. See Bielawska et al., Bioorg. Med. Chem., 16, 1032-1045 (2008); and Bielawska et al., Methods, 39, 82-91 (2006). Final results were expressed as the level of the particular sphingolipid (SPL)/phospholipids (Pi) determined from the Bligh and Dyer lipid extract and expressed as SPLs/Pi (pmol/nmol).

[3] = system: MCF-7 breast carcinoma cells; assay: MTT cell viability assay in MCF-7 breast carcinoma cells; type: cell-based, human
Protocol: Class E compounds were administrated to cells capable of undergoing differentiation in amounts effective to induce differentiation of several cancer cell lines: MCF-7, PPC1, SCC14a, A549, and J3DR4. Cell viability assay was performed by the 3-(4,5-Dimethylthiazol-2-yl)-2,5-diphenyltetrazolium bromide (MTT) assay. Cells were seeded into 96-well plate overnight before treatment with increasing drug concentrations (0-100 μM) as previously described. See Hansen et al., J. Immunol. Methods, 119, 203-210 (1989). After treatment, plates were incubated for an additional period of time (24-72 h). Changes in cell numbers were determined and expressed as a percentage of the untreated controls.
Class E prodrugs were administrated to MCF-7 cells capable of undergoing differentiation in amounts effective to induce differentiation. Cell viability assay was performed by the MTT assay. Cells were seeded into 96-well plate overnight before treatment with increasing drug concentrations (0-100 μM) as previously described. See Hansen et al., J. Immunol. Methods, 119, 203-210 (1989). After treatment, plates were incubated for an additional period of time (24-72 h). Changes in cell numbers were determined and expressed as a percentage of the untreated controls. 50% inhibitory concentrations were determined by comparing cell number changes in prodrug treated samples to control samples.

lysosomes [4] = assay: Lysosomal stability by FACS analysis with LYSOTRACKER red; type: cell-based; conditions: for lysosomal stability: 30 μM
Protocol: Effects of Class E inhibitors on ACDase protein degradation were determined by Western blotting as previously described. See Bielawska et al., Bioorg. Med. Chem., 16, 1032-1045 (2008); Liu et al., Front. Biosci., 13, 2293-2298 (2008); and Holman et al., Cancer Chemother. Pharmacol., 61, 231-242 (2008). Lysosomal stability and mitochondrial stability were determined by FACS analysis using LYSOTRACKER™ red (Molecular Probes, Eugene, Oreg., United States of America) or JC-1 mitochondrial dye (Molecular Probes, Eugene, Oreg., United States of America) as previously described. See Holman et al., Cancer. Chemother. Pharmacol., 61, 231-242 (2008).

acid ceramidase (ACDase) [5] = molecular target: T1, acid ceramidase (ACDase) (Homo sapiens, UniProt Q13510); assay: In vitro ACDase activity assay, release of radioactive palmitic acid from [3H]C16-Cer in MCF-7 cell lysate; type: biochemical; parameters: C16-Cer as a substrate and MCF-7 cell lysate as an enzymatic source; endogenous in cells; host or cells: MCF-7 cell lysate
T1 sequence (Q13510 22-142 limits assumed): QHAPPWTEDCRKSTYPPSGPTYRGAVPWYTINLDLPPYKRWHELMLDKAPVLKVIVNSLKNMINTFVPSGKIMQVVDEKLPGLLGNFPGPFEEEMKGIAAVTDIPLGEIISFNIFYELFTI
T1 sequence (Q13510 143-395 limits assumed): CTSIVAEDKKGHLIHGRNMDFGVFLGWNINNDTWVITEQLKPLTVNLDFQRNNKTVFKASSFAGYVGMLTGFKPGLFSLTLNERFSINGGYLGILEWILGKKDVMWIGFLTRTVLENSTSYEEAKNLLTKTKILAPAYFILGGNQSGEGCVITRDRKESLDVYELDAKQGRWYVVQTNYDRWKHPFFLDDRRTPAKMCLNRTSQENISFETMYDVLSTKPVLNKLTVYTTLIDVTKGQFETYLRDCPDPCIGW
Protocol: The in vitro assay was carried out according to a previously described procedure (see Zeidan et al., J. Biol. Chem., 281, 24695-24703 (2006)) using [^3H] C16-Cer as a substrate and MCF-7 cell lysate as an enzymatic source. Briefly, cell lysate was prepared under acidic conditions (i.e., pH 4.5, 50 mM sodium acetate, 5 mM magnesium chloride, 1 mM EDTA and 0.5% Triton X-100), and protein level was determined using BCA protein assay kit (Pierce, Rockford, Ill., United States of America). ACDase activity was determined based on the amount of the released radioactive palmitic acid counted by LS 6500 multi-purpose scintillation counter (Beckman Coulter, Inc., Fullerton, Calif., United States of America). The results are presented as percentage of control.

Caspase 3/7 = assay: Apo-ONE Homogeneous Caspase 3/7 assay in MCF-7 cells; type: cell-based, human; conditions: 24 h incubation
Protocol: The apoptotic effect of LCL464 was also investigated in MCF-7 cells via its effect on Caspase 3/7, a group of cysteine proteases that mediate execution. This can be activated by apoptotic signals from both death receptor and intracellular/mitochondrial pathways. Briefly, MCF-7 cells were seeded at a density of 5×10^3/50 μL/well overnight in 96 well plates. Then cells were treated with vehicle or diluted LCL464. After 8 and 24 hours incubation, Caspase 3/7 activities were measured using the Apo-ONE Homogeneous Caspase 3/7 Assay Kit according to the manufacturer's instructions (Promega, Madison, Wis., United States of America). LCL464 causes a dose dependent induction of apoptosis following 24 h incubation, causing increase of Caspase 3/7 activities to 140% and 200% for 10 μM and 20 μM, respectively.

acid ceramidase (ACDase) [6] = molecular target: T1, acid ceramidase (ACDase); assay: Cellular activity of ACDase: MCF-7 cells treated with drug, then lysed and assayed; type: cell-based; parameters: C16-Cer as a substrate and MCF-7 cell lysate as an enzymatic source; endogenous in cells; host or cells: MCF-7 cell lysate; conditions: 10 μM, 2 h of treatment
Protocol: as §1

lysosomes [7] = conditions: previously studied non-Class E inhibitor; Bielawska et al. 2008; cited from earlier work
[8] = MCF-7 cells, MTT, 24 hours, Example 7, hydrochloride, read-out: IC50/24 h
[9] = 48 hours of treatment, Example 6, read-out: IC50, MCF-7 cell growth (50% of surviving cells as compared to the control)
[10] = 10 μM, 5 hours, and time course

SMILES: CCCCCCCCCCCCCC(=O)N[C@H](C)[C@@H](O)c1ccccc1 [D-MAPP, D-erythro-2-(N-myristolyamino)-1-phenyl-1-propanol]
release of PGE2 (L929 cells): inhibited

SMILES: CCCCCCCCCCCCCC(=O)N[C@H](CO)[C@H](OC(=O)CN(C)C)c1ccc([N+](=O)[O-])cc1.Cl [LCL522]
breakdown / metabolism of the prodrug [1]: breaks down under the various assay conditions to form B13
regulation of cellular sphingolipids ([2]; 10 μM, 5 hours): behaved similarly to B13

SMILES: CCCCCCCCCCCCCCN[C@H](CO)[C@H](O)c1ccc([N+](=O)[O-])cc1 [LCL204, (1R,2R)-2-N-(tetradecylamino)-1-(4′-nitrophenyl)-1,3-propandiol]
lysosomal stability as compared to the control (permanent destabilization) (lysosomes [7]): ~90%
ACDase inhibition at the cellular level (acid ceramidase (ACDase) [6]): about 35%

SMILES: O=C(CCCCCCCCCCCN1CCOCC1)N[C@H](CO)[C@H](O)c1ccc([N+](=O)[O-])cc1 [LCL449, (1R,2R)-2-[N-(12′-{1″-morpholine}-dodecanoyl)-amino]-1-(4″-nitrophenyl)-1,3-propandiol]
IC50 [3, 9]: 49.9 µM

More lines, main results first:

IC50 [3, 8]: ~6.5 µM and 6.5 µM
SMILES: CCCCCCCCCCCCCC(=O)N[C@H](CO)[C@H](OC(=O)CN(C)C)c1ccc([N+](=O)[O-])cc1.Cl [LCL522, (1R,2R)-2-[N-tetradecanoyl)-amino]-1-(4″-nitrophenyl)-1,3-propandiol-1-O-dimethylglycine hydrochloride]

IC50 [3, 8]: ~8.9 µM and 8.9 µM
IC50 ([3]; MCF-7 cells, MTT, 48 hours, Example 7, read-out: IC50/48 h): 8.67 µM
IC50 ([3]; MCF-7 cells, MTT, 72 hours, Example 7, read-out: IC50/72 h): 7.45 µM
SMILES: CCCCCCCCCCCCCC(=O)N[C@H](COC(=O)CN(C)C)[C@H](OC(=O)CN(C)C)c1ccc([N+](=O)[O-])cc1.Cl [LCL521, (1R,2R)-2-[N-tetradecanoyl)-amino]-1-(4″-nitrophenyl)-1,3-propandiol-1,3-O-bis-dimethylglycine hydrochloride]

IC50 ([3]; 72 hr treatment, Example 6, read-out: IC50, MCF-7 cell growth): 7.2 µM
lysosomal dysfunction (LYSOTRACKER Red fluorescence) (lysosomes [4]; 10 μM, 1 and 5 hours of treatment): did not cause lysosomal dysfunction
lysosomal stability (lysosomes [4]; 1 h): 40%
lysosomal stability (lysosomes [4]; 5 h): 61%
lysosomal stability (lysosomes [4]; 24 h): > 100%
inhibition of ACDase in vitro (acid ceramidase (ACDase) [5]; 50 μM inhibitor, [3H]C16-Cer substrate): 55%
ACDase inhibition at the cellular level (acid ceramidase (ACDase) [6]): 65%
SMILES: CN(C)CCCCCCCCCCCC(=O)N[C@H](CO)[C@H](O)c1ccc([N+](=O)[O-])cc1 [LCL464, (1R,2R)-2-[N-(12′-N,N-dimethylamino-dodecanoyl)-amino]-1-(4″-nitrophenyl)-1,3-propandiol]
IC50 [3, 9]: 10.2 µM
Caspase 3/7 activities (percentage of control) (Caspase 3/7; 10 μM): 140%
Caspase 3/7 activities (percentage of control) (Caspase 3/7; 20 μM): 200%
level of C18-Cer, % of control ([2]; 50 μM, at 24 hours): ~900%
level of C16-Cer (percentage of control) ([2]; 50 μM, early effect): ~240%
concentration at which elevation of C18-Cer was observed ([2]; 24 hours, dose range 0-50 μM): above 20 μM

effect on acid ceramidase activity in vitro (acid ceramidase (ACDase) [5]; concentration dependent (FIG. 13)): inhibited acid ceramidase in vitro
SMILES: CCCCCCCCCCCCCC(=O)N[C@H](COC(=O)CN(C)C)[C@H](OC(=O)CN(C)C)c1ccc([N+](=O)[O-])cc1.Cl [LCL521]
delivery to the lysosomes (LYSOTRACKER Red fluorescence) (lysosomes [4]; 5 μM or 10 μM, 1 hour): appears to be delivered to the lysosomes
breakdown / metabolism of the prodrug [1]: slowly metabolized to the mono-ester LCL581 and B13
cellular level of Sph and S1P [2, 10]: decreased
levels of pro-apoptotic C16- and C18-Cer and total ceramide [2, 10]: increased
